Columns and labels:
Assay type in all cases: in vivo, mouse
[1] = Serum AST and ALT levels, high fat fed mice, 6 week study; settings: for ALT levels / AST levels: 6 weeks; for ALT levels: saline control 25 IU/L; for AST levels: saline control 65 IU/L
Experimental: (§1) Male C57BL/6 mice (n=8) receiving a high fat diet (60% kcal fat) were evaluated over the course of 6 weeks for the effects of treatment with the antisense oligonucleotide, ISIS 147764. Control animals received saline treatment (50 mg/kg). A subset of animals received a daily oral dose (20 mg/kg) atorvastatin calcium (Lipitor®, Pfizer Inc.). All mice, except atorvastatin-treated animals, were dosed intraperitoneally every three days (twice a week), after fasting overnight, with 5, 25, 50 mg/kg ISIS 147764 (SEQ ID No: 109) or saline (50 mg/kg) for six weeks. Serum cholesterol and lipoproteins were analyzed at 0, 2 and 6 week interim timepoints. At study termination, animals were sacrificed 48 hours after the final injections and evaluated for levels of target mRNA levels in liver, cholesterol, lipoprotein, triglyceride, liver enzyme (AST and ALT) and serum glucose levels as well as body, liver, spleen and fat pad weights.
(§2) Male C57BL/6 mice (n=8) receiving a high fat diet (60% kcal fat) were evaluated over the course of 6 weeks for the effects of ISIS 147764 on liver enzyme (AST and ALT) levels. Control animals received saline treatment (50 mg/kg). Mice were dosed intraperitoneally every three days (twice a week), after fasting overnight, with 5, 25, 50 mg/kg ISIS 147764 (SEQ ID No: 109) or saline (50 mg/kg) for six weeks.
Values in the table are expressed as IU/L. Increased levels of the liver enzymes ALT and AST indicate toxicity and liver damage.

[2] = Body, spleen, liver and fat pad weight, high fat fed mice, 6 week study; settings: compared to saline-treated controls
Experimental: as §1
Male C57BL/6 mice (n=8) receiving a high fat diet (60% kcal fat) were evaluated over the course of 6 weeks for the effects of ISIS 147764 on body, spleen, liver and fat pad weight. Control animals received saline treatment (50 mg/kg). Mice were dosed intraperitoneally every three days (twice a week), after fasting overnight, with 5, 25, 50 mg/kg ISIS 147764 (SEQ ID No: 109) or saline (50 mg/kg) for six weeks.
At study termination, animals were sacrificed 48 hours after the final injections and body, spleen, liver and fat pad weights were measured. Values are expressed as percent change in body weight or ogan weight compared to the saline-treated control animals. Data from mice treated with atorvastatin at a daily dose of 20 mg/kg are also shown in the table Negative values indicated a decrease in weight.

apolipoprotein B mRNA = assay: Target mRNA levels in liver, lean vs high fat fed C57BL/6 mice; settings: 50 mg/kg i.p. every three days, six weeks
Experimental: (§3) Male C57BL/6 mice were divided into two matched groups; (1) wild-type control animals (lean animals) and (2) animals receiving a high fat diet (60% kcal fat). Control animals received saline treatment and were maintained on a normal rodent diet. After overnight fasting, mice from each group were dosed intraperitoneally every three days with saline or 50 mg/kg ISIS 147764 (SEQ ID No: 109) for six weeks. At study termination and forty eight hours after the final injections, animals were sacrificed and evaluated for target mRNA levels in liver, cholesterol and triglyceride levels, liver enzyme levels and serum glucose levels.

[3] = Cholesterol, lipoprotein, triglyceride and serum glucose levels, lean vs high fat fed C57BL/6 mice; settings: 50 mg/kg i.p. every three days, six weeks
Experimental: as §3

[4] = Lipoprotein (VLDL, LDL, HDL) levels, high fat fed mice, 6 week study; settings: for HDL Percent Inhibition / LDL Percent Inhibition / VLDL Percent Inhibition: negative = increase
Experimental: as §1
as §2, with “lipoprotein (VLDL, LDL” for “liver enzyme (AST”, “HDL)” for “ALT)”
Values in the table are expressed as percent inhibition and are normalized to the saline control. Negative values indicate an observed increase in lipoprotein levels.

[5] = Liver enzyme levels, lean vs high fat fed C57BL/6 mice; settings: for Liver Enzymes ALT Percent Change / Liver Enzymes AST Percent Change: 50 mg/kg i.p. every three days, six weeks
Experimental: as §3

Sequence: GTCCCTGAAGATGTCAATGC (2'-MOE gapmer with phosphorothioates, pattern not given here) [ISIS 147764, 2′-MOE gapmer phosphorothioate oligonucleotide to mouse apolipoprotein B]
- ALT levels ([1]; 5 mg/kg): 50 IU/L
- AST levels ([1]; 5 mg/kg): 105 IU/L
- ALT levels ([1]; 25 mg/kg): 70 IU/L
- AST levels ([1]; 25 mg/kg): 70 IU/L
- ALT levels ([1]; 50 mg/kg): 100 IU/L
- AST levels ([1]; 50 mg/kg): 80 IU/L
- change in AST levels over the duration of the study compared to saline controls ([1]; 5, 25 and 50 mg/kg): no significant change
- Fat pad weight Percent Change ([2]; 5 mg/kg): 10%
- Liver weight Percent Change ([2]; 5 mg/kg): 18%
- Spleen weight Percent Change ([2]; 5 mg/kg): 10%
- Total Body Wt. Percent Change ([2]; 5 mg/kg): 5%
- Fat pad weight Percent Change ([2]; 25 mg/kg): 6%
- Liver weight Percent Change ([2]; 25 mg/kg): 70%
- Spleen weight Percent Change ([2]; 25 mg/kg): 10%
- Total Body Wt. Percent Change ([2]; 25 mg/kg): 5%
- Fat pad weight Percent Change ([2]; 50 mg/kg): −47%
- Liver weight Percent Change ([2]; 50 mg/kg): 80%
- Spleen weight Percent Change ([2]; 50 mg/kg): 46%
- Total Body Wt. Percent Change ([2]; 50 mg/kg): −4%
- mRNA Percent Change (apolipoprotein B mRNA; high fat fed (60% kcal fat) C57BL/6 mice): −87%
- mRNA Percent Change (apolipoprotein B mRNA; lean C57BL/6 mice): −73%
- CHOL Percent Change ([3]; high fat fed C57BL/6 mice): −67%
- GLUC Percent Change ([3]; high fat fed C57BL/6 mice): −28%
- Lipoproteins HDL Percent Change ([3]; high fat fed C57BL/6 mice): −65%
- Lipoproteins LDL Percent Change ([3]; high fat fed C57BL/6 mice): −87%
- Lipoproteins VLDL Percent Change ([3]; high fat fed C57BL/6 mice): No
- TRIG Percent Change ([3]; high fat fed C57BL/6 mice): No
- CHOL Percent Change ([3]; lean C57BL/6 mice): −63%
- GLUC Percent Change ([3]; lean C57BL/6 mice): No
- Lipoproteins HDL Percent Change ([3]; lean C57BL/6 mice): −44%
- Lipoproteins LDL Percent Change ([3]; lean C57BL/6 mice): −64%
- Lipoproteins VLDL Percent Change ([3]; lean C57BL/6 mice): No
- TRIG Percent Change ([3]; lean C57BL/6 mice): −34%
- HDL Percent Inhibition ([4]; 5 mg/kg, 0 weeks): 0%
- LDL Percent Inhibition ([4]; 5 mg/kg, 0 weeks): 2%
- VLDL Percent Inhibition ([4]; 5 mg/kg, 0 weeks): 0%
- HDL Percent Inhibition ([4]; 5 mg/kg, 2 weeks): 5%
- LDL Percent Inhibition ([4]; 5 mg/kg, 2 weeks): −30%
- VLDL Percent Inhibition ([4]; 5 mg/kg, 2 weeks): 25%
- HDL Percent Inhibition ([4]; 5 mg/kg, 6 weeks): 10%
- LDL Percent Inhibition ([4]; 5 mg/kg, 6 weeks): −10%
- VLDL Percent Inhibition ([4]; 5 mg/kg, 6 weeks): 10%
- HDL Percent Inhibition ([4]; 25 mg/kg, 0 weeks): 0%
- LDL Percent Inhibition ([4]; 25 mg/kg, 0 weeks): 0%
- VLDL Percent Inhibition ([4]; 25 mg/kg, 0 weeks): 0%
- HDL Percent Inhibition ([4]; 25 mg/kg, 2 weeks): 10%
- LDL Percent Inhibition ([4]; 25 mg/kg, 2 weeks): 10%
- VLDL Percent Inhibition ([4]; 25 mg/kg, 2 weeks): 30%
- HDL Percent Inhibition ([4]; 25 mg/kg, 6 weeks): 45%
- LDL Percent Inhibition ([4]; 25 mg/kg, 6 weeks): 55%
- VLDL Percent Inhibition ([4]; 25 mg/kg, 6 weeks): −30%
- lowering all categories of serum lipoproteins investigated, compared with atorvastatin ([4]; 50 mg/kg): to a greater extent than atorvastatin
- HDL Percent Inhibition ([4]; 50 mg/kg, 0 weeks): 0%
- LDL Percent Inhibition ([4]; 50 mg/kg, 0 weeks): 0%
- VLDL Percent Inhibition ([4]; 50 mg/kg, 0 weeks): 0%
- HDL Percent Inhibition ([4]; 50 mg/kg, 2 weeks): 10%
- LDL Percent Inhibition ([4]; 50 mg/kg, 2 weeks): 40%
- VLDL Percent Inhibition ([4]; 50 mg/kg, 2 weeks): 40%
- HDL Percent Inhibition ([4]; 50 mg/kg, 6 weeks): 50%
- LDL Percent Inhibition ([4]; 50 mg/kg, 6 weeks): 90%
- VLDL Percent Inhibition ([4]; 50 mg/kg, 6 weeks): 15%
- Liver Enzymes ALT Percent Change ([5]; high fat fed C57BL/6 mice): Slight
- Liver Enzymes AST Percent Change ([5]; high fat fed C57BL/6 mice): Slight
- Liver Enzymes ALT Percent Change ([5]; lean C57BL/6 mice): No
- Liver Enzymes AST Percent Change ([5]; lean C57BL/6 mice): Slight
- changes in liver enzyme levels ([5]; lean and high fat fed C57BL/6 mice, 50 mg/kg): No significant changes

From patent publication US8735364B2, “Antisense modulation of apolipoprotein B expression” (Genzyme Corporation, priority 2001, dated 2014)
